Assay [1] addresses T1, CRISP2 (Homo sapiens, UniProt P16562).
T1 sequence (P16562 22-243): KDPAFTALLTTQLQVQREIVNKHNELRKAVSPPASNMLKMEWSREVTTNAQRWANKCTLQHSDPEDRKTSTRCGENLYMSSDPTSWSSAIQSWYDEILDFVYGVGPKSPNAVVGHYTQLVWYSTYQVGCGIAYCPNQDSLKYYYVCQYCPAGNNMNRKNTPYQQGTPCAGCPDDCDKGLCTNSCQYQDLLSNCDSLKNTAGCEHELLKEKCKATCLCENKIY
Nature of the assay: Microscale thermophoresis (MST) binding to fluorescently labeled CRISP2. The procedure: (§1) MST is based on the diffusion of a fluorescently labeled molecule along a microscopic temperature gradient. In this assay, the free protein diffuses faster than its ligand-bound form. Ligands can range from small ions to low molecular weight compounds, liposomes, and even entire viruses ([35], [39], [40], [41]).
(§2) To assess protein-protein and protein-lipid interactions, MST experiments were performed using a Monolith NT.115 (Nanotemper Technologies). […] Samples were loaded into MST standard capillaries, and MST measurements were performed using an 80% laser power setting. The dissociation constant Kd was obtained by plotting the fraction bound against the logarithm of ligand concentration, using Prism software to fit a binding curve to the data point using the "one site specific" binding option. All MST measurements were performed in triplicate, with each set of experiments including a negative control to rule out nonspecific binding.
In general terms: Microscale thermophoresis detects binding through changes in fluorescence in a small temperature gradient.

Assay [2] concerns the target T2, A1BG (Homo sapiens, UniProt P04217).
T2 construct: made in house; host or cells: E. coli BL21
T2 sequence (P04217 22-495): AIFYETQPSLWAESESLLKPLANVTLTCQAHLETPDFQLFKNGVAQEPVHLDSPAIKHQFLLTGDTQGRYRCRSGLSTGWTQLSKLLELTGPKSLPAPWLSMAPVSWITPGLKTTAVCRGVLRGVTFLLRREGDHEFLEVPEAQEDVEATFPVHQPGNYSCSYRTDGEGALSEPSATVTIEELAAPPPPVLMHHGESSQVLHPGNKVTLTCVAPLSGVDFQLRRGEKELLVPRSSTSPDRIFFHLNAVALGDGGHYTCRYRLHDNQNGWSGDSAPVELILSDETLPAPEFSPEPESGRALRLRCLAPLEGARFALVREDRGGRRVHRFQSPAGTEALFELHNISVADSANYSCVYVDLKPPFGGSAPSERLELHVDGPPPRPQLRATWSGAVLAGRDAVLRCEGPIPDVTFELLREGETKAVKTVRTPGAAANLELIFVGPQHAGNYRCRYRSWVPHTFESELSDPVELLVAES
Briefly: MST lipid binding to A1BG. The settings on record: A1BG alone. The procedure: as §2

Assay [3] has as its target CRISP2 (cysteine-rich secretory protein 2), purified, fluorescently labeled (UniProt P16562). Briefly: MST; 100 nM RED-tris-NTA-labeled CRISP2 (or L98G Y99P mutant) mixed with a serial dilution of unlabeled A1BG or Ig domain; 20 mM Tris pH 7.5, 30 mM NaCl, 0.05% Triton X-100; Monolith NT.115, 80% laser power; one site specific fit; triplicates.
The target of assay [4] is T3, CRISP2 (Homo sapiens, UniProt P16562).
T3 sequence (P16562 22-243): T1 sequence (P16562 22-243)
T3 sequence (P04217 with tags, fused parts or gaps partner): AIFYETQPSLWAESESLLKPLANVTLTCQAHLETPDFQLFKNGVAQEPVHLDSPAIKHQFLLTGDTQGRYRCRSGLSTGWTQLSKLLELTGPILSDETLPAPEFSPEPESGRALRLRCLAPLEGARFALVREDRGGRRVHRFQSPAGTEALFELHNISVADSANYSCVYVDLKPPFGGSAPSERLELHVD
Briefly: Microscale thermophoresis (MST) binding to fluorescently labeled CRISP2. The settings on record: Kd of cholesterol sulfate binding by CRISP2 in the presence of Ig1, MST; CRISP2-Ig1. On the procedure: as §1, §2

The target in assay [5] is T4, CRISP2^L98G Y99P (Homo sapiens, UniProt P16562, L98G/Y99P).
T4 construct: made in house; host or cells: E. coli BL21
T4 sequence (P16562 22-243 L98G/Y99P): T1 sequence (P16562 22-243) with L77G, Y78P
Nature of the assay: MST binding to labeled CRISP2 L98G Y99P mutant. On the procedure: as §2

Consider four molecules from publication PMC11599453 (The Journal of Biological Chemistry, 2024).

Where a chain is given by its changes, count along the chain named. Values joined by “and” are separate entries in the source; they are usually repeats but may differ in a detail not shown here. Identical values can stand only once. Counter-ions that a name gives are not always drawn.

In the case of `CCCCCCCCCCCCCCCC(=O)O` [palmitic acid], the equilibrium dissociation constant (Kd) – broadly, a measure of binding affinity in units of concentration – in assay [1] (Kd of palmitic acid binding by CRISP2, MST, CRISP2 alone) was 64600 ± 20700 nM; in assay [1] (Kd of palmitic acid binding by CRISP2 in the presence of A1BG, MST, CRISP2+A1BG), 70000 ± 22700 nM. For the same molecule, the “Kd of palmitic acid binding by A1BG” value in assay [2] is on record as “did not bind”.

Take “Ig1 domain of A1BG, purified (domain or fragment)”: the Kd in assay [3] was determined as 38.7 nM.

“Ig3 domain of A1BG, purified (domain or fragment)” returned a Kd in assay [3] of 13.8 nM.

In the case of `CC(C)CCC[C@@H](C)[C@H]1CC[C@H]2[C@@H]3CC=C4C[C@@H](OS(=O)(=O)O)CC[C@]4(C)[C@H]3CC[C@]12C` [cholesterol sulfate], the Kd is 70 ± 20 nM in assay [1] (Kd of cholesterol sulfate binding by CRISP2 + EDTA + MgCl2, MST, EDTA 5 mM, MgCl2 10 mM); 3210 nM and 2630 nM in assay [1] (Kd of cholesterol sulfate binding by CRISP2, MST, CRISP2 alone); 2050 ± 760 nM in assay [1] (Kd of cholesterol sulfate binding by CRISP2 in the presence of Ig4, MST, CRISP2-Ig4); 4000 ± 1980 nM in assay [4]. The “Kd of cholesterol sulfate binding by CRISP2 in the presence of A1BG” value in assay [1] (MST, equimolar concentration of A1BG) is listed as “blocked”. Moreover, in assay [5], the “Kd of cholesterol sulfate binding by CRISP2 L98G Y99P in the presence of Ig3” value is listed as “inhibited”.
